Data reported in patent US12325703B2, “Fused ring compound as FGFR and VEGFR dual inhibitor” (CGENETECH (SUZHOU, CHINA) CO., LTD., priority 2019, dated 2025).

Experiments:
human FGFR1 = target: T1, human FGFR1 (Homo sapiens, UniProt P11362); assay: 33P isotope-labeled kinase activity test (Reaction Biology Corp), FGFR1; assay type: biochemical; conditions: 33P-ATP 5 μM, kinase 1.5 nM, 120 min room temperature
T1 construct: purchased Invitrogen PV3146
Procedure: (§1) The IC50 value was determined using ^33P isotope-labeled kinase activity test (Reaction Biology Corp) to evaluate the inhibitory ability of the compounds to be tested on human FGFR1, FGFR2 and VEGFR2.
(§2) Buffer conditions: 20 mM Hepes (pH 7.5), 10 mM MgCl2, 1 mM EGTA, 0.02% Brij35, 0.02 mg/mL BSA, 0.1 mM Na3VO4, 2 mM DTT, 1% DMSO.
(§3) Test steps: At room temperature, the compounds to be tested were dissolved in DMSO to prepare a 10 mM solution for use. The substrate was dissolved in the newly-prepared buffer, and the kinase to be tested was added thereto and mixed well. The DMSO solution in which the compounds to be tested were dissolved was added to the above-mentioned homogeneous reaction solution using acoustic technology (Echo 550). […] After incubating for 15 minutes, to the reaction solution was added ^33P-ATP (activity: 0.01 μCi/μL, with corresponding concentration listed in Table 10) to start the reaction. […] The kinase activity data was expressed by comparing the kinase activity of the groups containing the compounds to be tested with that of the blank group (containing only DMSO). The IC50 value was obtained by curve fitting using Prism4 software (GraphPad), and the experimental results were shown in Table 11.

[1] = Pharmacokinetic study in mice, cassette intravenous injection and intragastric administration; assay type: in vivo; conditions: mouse, plasma, Balb/c female mice; for Vd / AUC(0-t) / clearance / half-life: IV 0.2 mg/kg; for Vd: read-out: Apparent volume of distribution Vdss; for AUC(0-t): read-out: Area under the plasma concentration-time curve from time zero to 24 hours AUC0-24 h; for clearance: read-out: Clearance rate CL; for half-life: read-out: Half-life T1/2 (converted); for bioavailability: PO 1 mg/kg vs IV 0.2 mg/kg, read-out: Bioavailability F; for AUC / Cmax / Tmax: PO 1 mg/kg; for AUC: read-out: Area under the plasma concentration-time curve AUC; for Cmax: read-out: Peak concentration Cmax; for Tmax: read-out: Time to peak Tmax
Procedure: To evaluate the pharmacokinetic behavior of the compounds of the present disclosure after Cassette intravenous injection and intragastric administration, and to investigate the bioavailability thereof after intragastric administration.
Balb/c female mice aged 7 to 10 weeks were selected, and administered intravenously and orally with the doses of 0.2 mg/kg and 1 mg/kg, respectively. The mice were fasted for at least 12 hours before administration, and feeding was resumed after 4 hours of administration. The mice were free to drink water during the entire experiment. In this experiment, Cassette administration was used, and with regard to the intravenous injection group: an appropriate amount of each compound was weighed, and mixed with 5% DMSO/10% Solutol/85% Water for vortexing to prepare a 0.1 mg/mL of clear solution; the clear solution was filtered with a microporous membrane for later use; and with regard to the intragastric administration group: an appropriate amount of each compound was weighted, and mixed with 90% (25% HP-β-CD/10% Cremophor EL) with pH being adjusted to 4 to 5 to prepare a homogeneous suspension for later use. On the day of the experiment, the animals in the intravenous injection group were administrated with the corresponding compounds via tail vein single injection, with the administration volume of 2 mL/kg; and the animals in the oral group were administrated with the corresponding compounds by single intragastric administration, with the administration volume of 10 mL/kg. The body weight of the animals was weighed before administration, and the administration volume was calculated based on the body weight. The sample collection time was: 0.083 (injection group) h, 0.25 h, 0.5 h, 1 h, 2 h, 4 h, 8 h, and 24 h. Approximately 30 uL of whole blood was collected from the saphenous vein at each time point to prepare plasma for high performance liquid chromatography-tandem mass spectrometry (LC-MS/MS) to determine the concentration. All animals were euthanized by CO2 anesthesia after PK samples at the last time point were collected. The non-compartmental model of WinNonlin™ Version 6.3 (Pharsight, Mountain View, CA) pharmacokinetic software was used to process the plasma concentration, and the pharmacokinetic parameters were calculated using the linear logarithmic trapezoidal method.

human FGFR2 = target: T2, human FGFR2 (Homo sapiens, UniProt P21802); assay: 33P isotope-labeled kinase activity test (Reaction Biology Corp), FGFR2; assay type: biochemical; conditions: 33P-ATP 5 μM, kinase 0.45 nM, 120 min room temperature
T2 construct: purchased Invitrogen PV3368
T2 sequence (P21802 22-821): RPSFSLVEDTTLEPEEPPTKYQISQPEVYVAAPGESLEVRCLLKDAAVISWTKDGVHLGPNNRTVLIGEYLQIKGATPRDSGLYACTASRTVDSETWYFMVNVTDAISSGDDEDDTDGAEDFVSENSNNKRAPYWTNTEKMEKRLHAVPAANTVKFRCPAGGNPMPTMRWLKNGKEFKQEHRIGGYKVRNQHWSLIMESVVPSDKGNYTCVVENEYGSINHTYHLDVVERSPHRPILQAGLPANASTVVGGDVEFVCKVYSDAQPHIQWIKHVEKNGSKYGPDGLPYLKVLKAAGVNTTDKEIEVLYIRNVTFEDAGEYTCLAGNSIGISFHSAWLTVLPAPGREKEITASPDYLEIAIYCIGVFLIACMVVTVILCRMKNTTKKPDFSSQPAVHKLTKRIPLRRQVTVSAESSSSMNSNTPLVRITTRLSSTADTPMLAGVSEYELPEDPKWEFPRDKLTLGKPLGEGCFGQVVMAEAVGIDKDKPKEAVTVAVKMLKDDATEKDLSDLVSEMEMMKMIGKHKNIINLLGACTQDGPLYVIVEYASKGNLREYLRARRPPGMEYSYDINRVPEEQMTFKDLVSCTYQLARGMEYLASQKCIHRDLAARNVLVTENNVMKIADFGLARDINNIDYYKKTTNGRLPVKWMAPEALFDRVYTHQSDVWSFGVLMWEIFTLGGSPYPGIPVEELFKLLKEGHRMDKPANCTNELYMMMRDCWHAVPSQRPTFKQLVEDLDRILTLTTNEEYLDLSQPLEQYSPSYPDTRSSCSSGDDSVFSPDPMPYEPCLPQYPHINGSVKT
Procedure: as §1, §2, §3

[2] = system: human gastric cancer SNU-16 cells expressing FGFR2; assay: Cell activity (proliferation) test of gastric cancer cell line SNU-16, CellTiter-Glo; assay type: cell-based; conditions: inhibition of proliferation
Procedure: To test the inhibitory effect of the compounds on the proliferation of human gastric cancer SNU-16 cells expressing FGFR2.
The compounds used in the test were subjected to 3-fold concentration dilution, the concentration starting from 10 μM and subjected to […], resulting in 9 concentrations: 10 μM, 2.50 μM, 0.62 μM, 0.156 μM, 39.1 nM, 9.8 nM, 2.4 nM, 0.61 nM, and 0.15 nM.
(1) Promega CellTiter-Glo luminescent cell viability assay kit (Promega-G7573).
(2) 2104 EnVision multi-tag reader, PerkinElmer.
The inhibition rate of different doses of the compounds would be calculated in the Excel file, and the IC50 data was obtained by parametric curve fitting (GraphPad Software).

[3] = target: T3, hERG potassium ion channel (Homo sapiens, UniProt Q12809); assay: Inhibition test of hERG potassium ion channel, full-automatic patch clamp (Qpatch), CHO-hERG cells; assay type: cell-based; conditions: highest test concentration 40 μM
T3 construct: expressed in transfected cells; host or cells: CHO-hERG cells
T3 sequence (Q12809 whole entry): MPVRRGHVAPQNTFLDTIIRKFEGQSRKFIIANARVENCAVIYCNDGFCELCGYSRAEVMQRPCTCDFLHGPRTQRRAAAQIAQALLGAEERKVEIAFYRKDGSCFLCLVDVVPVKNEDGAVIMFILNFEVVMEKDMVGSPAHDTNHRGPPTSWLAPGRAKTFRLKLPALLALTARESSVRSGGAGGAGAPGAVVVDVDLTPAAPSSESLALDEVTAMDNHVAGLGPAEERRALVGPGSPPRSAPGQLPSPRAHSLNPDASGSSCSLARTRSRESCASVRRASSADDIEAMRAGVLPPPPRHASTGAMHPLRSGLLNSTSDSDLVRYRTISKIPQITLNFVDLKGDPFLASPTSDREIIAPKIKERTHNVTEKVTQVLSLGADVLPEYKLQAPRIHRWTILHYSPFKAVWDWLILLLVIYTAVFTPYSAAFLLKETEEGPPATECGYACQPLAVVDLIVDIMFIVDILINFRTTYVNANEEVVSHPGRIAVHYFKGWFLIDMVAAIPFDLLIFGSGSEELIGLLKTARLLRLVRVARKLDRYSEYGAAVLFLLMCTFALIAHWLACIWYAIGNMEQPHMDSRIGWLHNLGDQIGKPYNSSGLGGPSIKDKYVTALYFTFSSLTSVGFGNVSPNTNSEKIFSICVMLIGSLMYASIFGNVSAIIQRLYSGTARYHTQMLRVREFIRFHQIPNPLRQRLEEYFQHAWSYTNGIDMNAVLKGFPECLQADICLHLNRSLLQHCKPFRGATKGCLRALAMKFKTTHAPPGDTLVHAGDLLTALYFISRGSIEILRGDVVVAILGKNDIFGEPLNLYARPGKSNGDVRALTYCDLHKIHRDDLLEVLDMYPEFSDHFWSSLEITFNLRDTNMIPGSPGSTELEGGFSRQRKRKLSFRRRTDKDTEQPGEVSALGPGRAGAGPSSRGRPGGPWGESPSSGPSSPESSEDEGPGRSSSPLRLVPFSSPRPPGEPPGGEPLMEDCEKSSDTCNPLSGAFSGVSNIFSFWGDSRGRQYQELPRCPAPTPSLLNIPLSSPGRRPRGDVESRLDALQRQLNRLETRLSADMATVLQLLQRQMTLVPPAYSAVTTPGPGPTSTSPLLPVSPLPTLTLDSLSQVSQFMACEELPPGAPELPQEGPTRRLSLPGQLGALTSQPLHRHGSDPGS
Procedure: To detect the effect of the compounds of the present disclosure to be tested on the hERG potassium ion channel using a full-automatic patch clamp method.
1.1 CHO-hERG cells were cultured in a 175 cm^2 culture bottle, and once the cells grow to a density of 60% to 80%, the culture solution was removed; and the cells were washed with 7 mL of PBS (Phosphate Buffered Saline), and then digested by adding 3 mL of Detachin.
1.2 After the digestion was complete, 7 mL of culture solution was added for neutralization, and the mixture was centrifuged; and the supernatant was pipetted out, and then 5 mL of culture solution was added for resuspension to ensure that the cells reached a density of 2 to 5×10^6/mL.
The single-cell high-impedance sealing and the whole-cell mode formation process were all automatically completed by the Qpatch instrument. After the whole-cell recording mode was obtained, the cells were clamped at −80 millivolt; before a 5 second +40 millivolt depolarization stimulus was given, a 50 millisecond −50 millivolt pre-voltage was given, then repolarized to −50 millivolt for 5 seconds, and then returned to −80 millivolt. Such a voltage stimulus was applied every 15 seconds and recorded for 2 minutes, and then extracellular fluid was given and recorded for 5 minutes, followed by drug administration. […]
The experimental data was analyzed by GraphPad Prism 5.0 software. […]

[4] = system: human gastric cancer SNU-16 subcutaneous xenograft tumor; assay: Anti-tumor activity in mouse subcutaneous xenograft tumor model of human gastric cancer SNU-16; assay type: in vivo, nude mice; conditions: day 25, SNU-16 xenograft
Procedure: To determine the anti-tumor effect of the compounds of the present disclosure in a mouse subcutaneous xenograft tumor model of human gastric cancer SNU-16
preparation of tumor tissues: SNU-16 cells were routinely cultured in an RPMI-1640 culture medium containing 10% fetal bovine serum under the conditions of 5% CO2, 37° C. and saturated humidity.
Each animal was inoculated with 200 μL (8×10^6 cells/mouse) to establish a SNU-16 xenograft model. The animal status was observed regularly, and the tumor diameter was measured with an electronic vernier caliper. The data was input into an Excel spreadsheet to calculate tumor volume and monitor tumor growth.
3) The tumor diameter was measured twice a week to calculate the tumor volume, and the animal body weight was weighted and recorded.
The calculation formula of tumor volume (TV) was: TV (mm^3)=1×w^2/2, where 1 represented the long diameter of the tumor (mm); w represented the short diameter of the tumor (mm).
The anti-tumor efficacy of the compounds was evaluated by TGI (%) or relative tumor proliferation rate T/C (%). […] The relative tumor volume (RTV) was calculated according to the results of the tumor measurement. The calculation formula was RTV=Vt/V0, where V0 was the tumor volume measured at the beginning of the grouping and administration (i.e., D0), and Vt was the tumor volume corresponding to a certain measurement in the mouse. […]

human VEGFR2 = target: T4, human VEGFR2 (Homo sapiens, UniProt P35968); assay: 33P isotope-labeled kinase activity test (Reaction Biology Corp), VEGFR2; assay type: biochemical; conditions: 33P-ATP 20 μM, kinase 1 nM, 120 min room temperature
T4 construct: purchased Invitrogen PR5992C
T4 sequence (P35968 20-1356): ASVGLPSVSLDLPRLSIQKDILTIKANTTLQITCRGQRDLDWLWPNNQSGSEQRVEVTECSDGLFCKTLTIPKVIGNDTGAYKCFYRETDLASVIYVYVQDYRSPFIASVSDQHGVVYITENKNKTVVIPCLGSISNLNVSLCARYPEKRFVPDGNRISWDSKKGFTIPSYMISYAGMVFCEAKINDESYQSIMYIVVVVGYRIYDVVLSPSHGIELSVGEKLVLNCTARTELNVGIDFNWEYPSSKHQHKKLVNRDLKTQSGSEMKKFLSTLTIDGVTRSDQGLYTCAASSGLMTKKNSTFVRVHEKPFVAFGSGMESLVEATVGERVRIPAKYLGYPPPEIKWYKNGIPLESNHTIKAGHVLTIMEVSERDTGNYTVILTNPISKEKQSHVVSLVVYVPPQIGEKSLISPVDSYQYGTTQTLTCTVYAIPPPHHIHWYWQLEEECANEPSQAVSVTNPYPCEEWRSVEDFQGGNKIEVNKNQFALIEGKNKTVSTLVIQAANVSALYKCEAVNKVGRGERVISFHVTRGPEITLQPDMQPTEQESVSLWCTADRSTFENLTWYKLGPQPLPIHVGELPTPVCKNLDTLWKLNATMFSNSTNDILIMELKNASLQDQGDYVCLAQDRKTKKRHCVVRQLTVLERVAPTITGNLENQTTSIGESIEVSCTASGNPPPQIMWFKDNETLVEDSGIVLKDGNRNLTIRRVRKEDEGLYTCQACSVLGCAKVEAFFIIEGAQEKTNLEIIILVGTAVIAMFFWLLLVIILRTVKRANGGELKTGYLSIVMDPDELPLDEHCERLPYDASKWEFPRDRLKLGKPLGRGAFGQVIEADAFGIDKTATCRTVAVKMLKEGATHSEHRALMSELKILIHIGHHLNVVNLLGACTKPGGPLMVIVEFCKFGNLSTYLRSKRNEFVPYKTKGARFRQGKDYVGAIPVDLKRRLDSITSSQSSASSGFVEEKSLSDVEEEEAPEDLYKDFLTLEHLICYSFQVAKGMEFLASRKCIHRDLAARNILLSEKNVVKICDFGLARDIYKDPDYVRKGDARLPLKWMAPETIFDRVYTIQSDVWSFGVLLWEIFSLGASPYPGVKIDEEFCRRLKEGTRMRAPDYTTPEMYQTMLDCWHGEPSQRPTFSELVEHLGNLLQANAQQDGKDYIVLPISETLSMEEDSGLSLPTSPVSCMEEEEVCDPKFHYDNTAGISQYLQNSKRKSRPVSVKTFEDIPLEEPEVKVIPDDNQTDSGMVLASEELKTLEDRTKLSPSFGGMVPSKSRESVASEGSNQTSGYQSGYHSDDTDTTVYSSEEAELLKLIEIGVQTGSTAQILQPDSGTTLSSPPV
Procedure: as §1, §2, §3

T1 sequence (P11362 22-822): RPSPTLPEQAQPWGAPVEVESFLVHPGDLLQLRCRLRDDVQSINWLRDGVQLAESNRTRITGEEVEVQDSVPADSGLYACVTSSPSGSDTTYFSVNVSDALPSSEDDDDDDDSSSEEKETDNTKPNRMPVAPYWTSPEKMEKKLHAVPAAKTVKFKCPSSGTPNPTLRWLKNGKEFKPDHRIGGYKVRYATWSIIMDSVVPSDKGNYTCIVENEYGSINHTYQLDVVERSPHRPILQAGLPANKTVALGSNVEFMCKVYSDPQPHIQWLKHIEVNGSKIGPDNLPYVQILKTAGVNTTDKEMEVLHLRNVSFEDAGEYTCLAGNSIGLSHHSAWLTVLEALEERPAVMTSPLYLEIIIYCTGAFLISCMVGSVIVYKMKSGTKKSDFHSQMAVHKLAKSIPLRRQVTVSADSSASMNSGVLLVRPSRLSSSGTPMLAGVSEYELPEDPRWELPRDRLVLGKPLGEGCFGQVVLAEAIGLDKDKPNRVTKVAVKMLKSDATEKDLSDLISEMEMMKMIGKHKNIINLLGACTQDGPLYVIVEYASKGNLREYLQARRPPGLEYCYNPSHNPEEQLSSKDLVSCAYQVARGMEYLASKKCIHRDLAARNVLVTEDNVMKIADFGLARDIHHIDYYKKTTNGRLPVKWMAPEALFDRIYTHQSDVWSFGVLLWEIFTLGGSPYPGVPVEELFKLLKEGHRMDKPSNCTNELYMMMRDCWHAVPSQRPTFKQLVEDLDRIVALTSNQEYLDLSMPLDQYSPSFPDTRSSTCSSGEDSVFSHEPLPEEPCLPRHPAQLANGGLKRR

Row | SMILES | IC50 (human FGFR1) | Vd [1] | AUC(0-t) [1] | clearance [1] | half-life [1] | bioavailability [1] | AUC [1] | Cmax [1] | Tmax [1] | IC50 (human FGFR2) | IC50 [2] | IC50 [3] | TGI (%) (tumor growth inhibition rate) on day 25 ([4]; PO 10 mpk/QD) | TGI (%) (tumor growth inhibition rate) on day 25 ([4]; PO 20/30/20 mpk/QD (30 mg/kg/day from day 9, 20 mg/kg/day from day 12)) | IC50 (human VEGFR2)
1 | Cn1cc(-c2ccc3c(-c4cc(NS(=O)(=O)C5CC5)cc(-c5ccc(F)cc5F)c4)cnn3c2)cn1 [Compound 1] | 6.29 nM | 1.25 L/kg | 0.751 µM·h | 8.53 mL/min/kg | 1.52 h | 74% | 2.48 µM·h | 540 nM | 2 h |  |  |  |  |  | 
2 | CCS(=O)(=O)Nc1cc(-c2ccc(F)cc2F)cc(-c2cnn3cc(-c4cnn(C)c4)ccc23)c1 [Compound 2] | 2.86 nM | 1.2 L/kg | 1.14 µM·h | 6.53 mL/min/kg | 2.12 h | 43.8% | 1.98 µM·h | 388 nM | 2 h | 2.66 nM | 16.3 nM | > 40000 nM | 74% |  | 
3 | Cn1cc(-c2ccc3c(c2)ncn3-c2cc(NS(=O)(=O)C3CC3)cc(-c3ccc(F)cc3F)c2)cn1 [reference compound] | 22.2 nM |  |  |  |  |  |  |  |  | 29.9 nM |  |  |  |  | 27.2 nM

More lines, main results first:

Row | IC50 (human FGFR1) | Vd [1] | AUC(0-t) [1] | clearance [1] | half-life [1] | bioavailability [1] | AUC [1] | Cmax [1] | Tmax [1] | IC50 (human FGFR2) | IC50 [2] | SMILES | IC50 [3] | TGI (%) (tumor growth inhibition rate) on day 25 ([4]; PO 10 mpk/QD) | TGI (%) (tumor growth inhibition rate) on day 25 ([4]; PO 20/30/20 mpk/QD (30 mg/kg/day from day 9, 20 mg/kg/day from day 12)) | IC50 (human VEGFR2)
4 | 9.34 nM |  |  |  |  |  |  |  |  |  |  | Cn1cc(-c2cnc3c(-c4cc(NS(=O)(=O)C5CC5)cc(-c5ccc(F)cc5F)c4)cnn3c2)cn1 [Compound 5] | > 40000 nM |  |  | 
5 | 1.63 nM | 1.4 L/kg | 0.548 µM·h | 12.6 mL/min/kg | 1.17 h | 73.2% | 1.9 µM·h | 463 nM | 2 h | 2.5 nM | 14.5 nM | Cn1cc(-c2ccc3c(-c4cc(NS(C)(=O)=O)cc(-c5ccc(F)cc5F)c4)cnn3c2)cn1 [Compound 4] |  |  | 70% | 
